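Protocol summary: plate cells (96-well), add compound at 5 concentrations, incubate 48 h, interpolate endpoints linearly. GI50 is the concentration that inhibits growth by half.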 The source made the active and inactive calls. No stated cut-off is given here; in the data, active = GI50 up to about 1.1 µM and inactive = higher.
Assays:
Assay in all cases: NCI-60 cell line screen, 48 h
786-0 = test system: 786-0
A498 = test system: A498
A549 = test system: A549
ACHN = test system: ACHN
BT-549 = test system: BT-549
CAKI-1 = test system: CAKI-1
COLO 205 = test system: COLO 205
EKVX = test system: EKVX
HCC 2998 = test system: HCC 2998
HCT-116 = test system: HCT-116
HCT-15 = test system: HCT-15
HL-60 = test system: HL-60
HOP-62 = test system: HOP-62
HOP-92 = test system: HOP-92
HT-29 = test system: HT-29
Hs-578T = test system: Hs-578T
IGROV-1 = test system: IGROV-1
K562 = test system: K562
LOX IMVI = test system: LOX IMVI
M14 = test system: M14
MCF7 = test system: MCF7
MDA-MB-435 = test system: MDA-MB-435
MDA-N = test system: MDA-N
MOLT-4 = test system: MOLT-4
Malme-3M = test system: Malme-3M
NCI-H23 = test system: NCI-H23
NCI-H460 = test system: NCI-H460
NCI/ADR-RES = test system: NCI/ADR-RES
OVCAR-3 = test system: OVCAR-3
OVCAR-4 = test system: OVCAR-4
OVCAR-5 = test system: OVCAR-5
OVCAR-8 = test system: OVCAR-8
PC-3 = test system: PC-3
RPMI-8226 = test system: RPMI-8226
SF-268 = test system: SF-268
SF-295 = test system: SF-295
SF-539 = test system: SF-539
SK-MEL-28 = test system: SK-MEL-28
SK-MEL-2 = test system: SK-MEL-2
SK-MEL-5 = test system: SK-MEL-5
SK-OV-3 = test system: SK-OV-3
SN12C = test system: SN12C
SNB-19 = test system: SNB-19
SR = test system: SR
SW-620 = test system: SW-620
TK-10 = test system: TK-10
UACC-257 = test system: UACC-257
UACC-62 = test system: UACC-62
UO-31 = test system: UO-31
DU-145 = test system: DU-145
KM12 = test system: KM12
NCI-H226 = test system: NCI-H226
NCI-H522 = test system: NCI-H522
RXF 393 = test system: RXF 393
SNB-75 = test system: SNB-75
U-251 = test system: U-251

## Nc1ncnc2c1nc(O)n2-c1ccccc1
786-0
  GI50: > 100 µM (inactive)
A498
  GI50: > 100 µM (inactive)
A549
  GI50: > 100 µM (inactive)
ACHN
  GI50: > 100 µM (inactive)
BT-549
  GI50: > 100 µM (inactive)
CAKI-1
  GI50: 78.9 µM (inactive)
COLO 205
  GI50: > 100 µM (inactive)
EKVX
  GI50: 93.8 µM (inactive)
HCC 2998
  GI50: > 100 µM (inactive)
HCT-116
  GI50: > 100 µM (inactive)
HCT-15
  GI50: > 100 µM
HL-60
  GI50: > 100 µM (inactive)
HOP-62
  GI50: > 100 µM (inactive)
HOP-92
  GI50: 96.8 µM (inactive)
HT-29
  GI50: > 100 µM (inactive)
Hs-578T
  GI50: > 100 µM (inactive)
IGROV-1
  GI50: > 100 µM (inactive)
K562
  GI50: > 100 µM (inactive)
LOX IMVI
  GI50: > 100 µM (inactive)
M14
  GI50: > 100 µM (inactive)
MCF7
  GI50: > 100 µM (inactive)
MDA-MB-435
  GI50: > 100 µM (inactive)
MDA-N
  GI50: > 100 µM (inactive)
MOLT-4
  GI50: > 100 µM (inactive)
Malme-3M
  GI50: > 100 µM (inactive)
NCI-H23
  GI50: > 100 µM (inactive)
NCI-H460
  GI50: > 100 µM (inactive)
NCI/ADR-RES
  GI50: > 100 µM (inactive)
OVCAR-3
  GI50: > 100 µM (inactive)
OVCAR-4
  GI50: > 100 µM (inactive)
OVCAR-5
  GI50: > 100 µM (inactive)
OVCAR-8
  GI50: > 100 µM (inactive)
PC-3
  GI50: > 100 µM (inactive)
RPMI-8226
  GI50: > 100 µM (inactive)
SF-268
  GI50: > 100 µM (inactive)
SF-295
  GI50: > 100 µM (inactive)
SF-539
  GI50: > 100 µM (inactive)
SK-MEL-28
  GI50: > 100 µM (inactive)
SK-MEL-2
  GI50: > 100 µM (inactive)
SK-MEL-5
  GI50: > 100 µM (inactive)
SK-OV-3
  GI50: > 100 µM (inactive)
SN12C
  GI50: > 100 µM (inactive)
SNB-19
  GI50: > 100 µM (inactive)
SR
  GI50: > 100 µM (inactive)
SW-620
  GI50: > 100 µM (inactive)
TK-10
  GI50: > 100 µM (inactive)
UACC-257
  GI50: > 100 µM (inactive)
UACC-62
  GI50: > 100 µM (inactive)
UO-31
  GI50: 57.7 µM (inactive)

## COC(C(=O)NN)c1ccccc1 (centres undefined)
786-0
  GI50: > 100 µM (inactive)
A549
  GI50: > 100 µM (inactive)
ACHN
  GI50: > 100 µM (inactive)
BT-549
  GI50: > 100 µM (inactive)
CAKI-1
  GI50: > 100 µM (inactive)
DU-145
  GI50: > 100 µM (inactive)
EKVX
  GI50: > 100 µM (inactive)
HCC 2998
  GI50: > 100 µM (inactive)
HCT-15
  GI50: > 100 µM
HOP-62
  GI50: > 100 µM (inactive)
HOP-92
  GI50: > 100 µM (inactive)
HT-29
  GI50: > 100 µM (inactive)
Hs-578T
  GI50: > 100 µM (inactive)
IGROV-1
  GI50: > 100 µM (inactive)
K562
  GI50: > 100 µM (inactive)
KM12
  GI50: > 100 µM (inactive)
M14
  GI50: > 100 µM (inactive)
MCF7
  GI50: > 100 µM (inactive)
MDA-MB-435
  GI50: > 100 µM (inactive)
MDA-N
  GI50: > 100 µM (inactive)
MOLT-4
  GI50: > 100 µM (inactive)
Malme-3M
  GI50: > 100 µM (inactive)
NCI-H226
  GI50: > 100 µM (inactive)
NCI-H23
  GI50: > 100 µM (inactive)
NCI-H460
  GI50: > 100 µM (inactive)
NCI-H522
  GI50: > 100 µM (inactive)
NCI/ADR-RES
  GI50: > 100 µM (inactive)
OVCAR-3
  GI50: > 100 µM (inactive)
OVCAR-5
  GI50: > 100 µM (inactive)
OVCAR-8
  GI50: > 100 µM (inactive)
PC-3
  GI50: > 100 µM (inactive)
RPMI-8226
  GI50: > 100 µM (inactive)
RXF 393
  GI50: > 100 µM (inactive)
SF-268
  GI50: > 100 µM (inactive)
SF-295
  GI50: > 100 µM (inactive)
SF-539
  GI50: > 100 µM (inactive)
SK-MEL-28
  GI50: > 100 µM (inactive)
SK-MEL-2
  GI50: > 100 µM (inactive)
SK-MEL-5
  GI50: > 100 µM (inactive)
SK-OV-3
  GI50: > 100 µM (inactive)
SN12C
  GI50: > 100 µM (inactive)
SNB-19
  GI50: > 100 µM (inactive)
SNB-75
  GI50: 27.8 µM (inactive)
SR
  GI50: > 100 µM (inactive)
SW-620
  GI50: > 100 µM (inactive)
TK-10
  GI50: > 100 µM (inactive)
U-251
  GI50: > 100 µM (inactive)
UACC-257
  GI50: > 100 µM (inactive)
UACC-62
  GI50: > 100 µM (inactive)
UO-31
  GI50: > 100 µM (inactive)
